≈ marks a conversion by molar mass, not a printed value. Entries after “also recorded” stand apart in the source; their conditions may differ. Where two headings read alike, the source gives them in different places.
Experiments:
C. neoformans = assay: MIC assay (Example 4); assay type: cell-based, Cryptococcus neoformans; conditions: Cryptococcus neoformans
Procedure: Both JH-FK-10 and JH-FK-11 maintained in vitro antifungal activity against C. neoformans with MICs of 0.8 and 1.6 μg/mL, respectively (Table 11).
In vitro antifungal activity of FK506, FK520, and analogs was assessed in RPMI 1640 (Sigma-Aldrich) for all strains tested. Minimum inhibitory concentrations (MIC) for each drug were measured using modified Clinical and Laboratory Standards Institute (CLSI) M38-A2 and M27-A3 standard in vitro antifungal susceptibility protocols. Broth microdilution assays for MIC assessment were performed as previously described. All antifungal assays with C. neoformans were performed at 37° C.

fungi = conditions: listed as L-685,818; cited from earlier work
immunosuppression = conditions: listed as L-685,818; cited from earlier work
[1] = test system: IL-2 expression in primary murine CD4+ T cells; assay: In vitro immunosuppressive activity, IL-2 expression (Example 4); assay type: cell-based, mouse
Procedure: Spleen and lymph nodes were collected from C57BL/6 mice and homogenized through a 40 μm filter. Pan-CD4^+ T cells were enriched using MagniSort Mouse CD4 T cell Kit (eBioscience) according to the manufacturer's protocol. Thereafter, CD4+CD25−CD44lo CD62Lhi naïve T cells were FACS-sorted. The naïve CD4+ T cells were grown in Iscove's Modified Dulbecco's Medium (IMDM) supplemented with glutamine, penicillin, streptomycin, gentamicin, 2-mercaptoethanol, and 10% FBS. Cells were then cultured on anti-hamster IgG coated plates in the presence of hamster anti-CD3 epsilon and anti-CD28 antibodies (BD Biosciences), neutralizing anti-IL-4 antibody (eBioscience), recombinant IL-12 (10 ng/mL), and recombinant IL-2 (50 U/mL) for 72 h. During this period, cells were grown in the presence of 2× serially diluted FK506, FK520, or analog suspended in DMSO for 72 h. During the last 4 h of culture, phorbol 12-myristate 13-acetate (PMA; Sigma), ionomycin (Sigma), and GolgiStop (BD Biosciences) were added to the culture to facilitate detection of intracellular cytokines via flow cytometry.
Live cells were stained with FITC-conjugated anti-CD4 antibody (eBioscience) and Fixable Viability Dye eFluor 506 (eBioscience) on ice, followed by fixation and permeabilization using the Foxp3 Transcription Factor Staining Kit (eBioscience). Intracellular staining was performed at room temperature using PE-conjugated anti-IL-2 antibody (eBioscience), followed by analysis with a BD LSRFortessa X-20 flow cytometer.

C. neoformans strain H99 [2] = assay: Murine cryptococcal infection, lung fungal burden (Example 3); assay type: in vivo, Cryptococcus neoformans in A/J mice; conditions: JH-FK-08 40 mg/kg
Procedure: In vivo antifungal activity and therapeutic benefit were assayed by investigating the impact of the FK520 analog on organ fungal burden during cryptococcosis. Specifically, the in vivo efficacy of JH-FK-08 on fungal burden was assessed using A/J female mice. Immunodeficient A/J mice were selected in part due to their defect in complement component five and their susceptibility to cryptococcal infection. Treatment groups included vehicle of 10% Kolliphor: ethanol (1:1) in phosphate-buffered saline (PBS), […], or the fluconazole and JH-FK-08 combination, […] infection. […] Mice were intranasally infected with C. neoformans strain H99, and fungal burden in the lung, spleen, and brain was assessed after 14 days of treatment.
(§1) C. neoformans inoculum was prepared by growing a 5-mL overnight YPD culture spinning in a tissue culture roller drum at 30° C. Cells were pelleted by centrifugation and washed in sterile PBS three times. Cell density was determined by hemocytometer, and cells were diluted to 2×10^6 cells/mL. Mice (10 to 20 g) were infected with 10^5 cells of C. neoformans H99. For inhalation infection, animals were anesthetized with isoflurane before 50 μL of inoculum was pipetted onto the upright nasal passages of each animal. Following inhalation of the inoculum, animals were monitored for post anesthesia recovery. Treatment of animals began 4 hours post infection and was continued for 14 days. Fungal burden was assessed 24 h after the final dose.
For survival curve analysis, animals were monitored until reaching defined humane end points, including social isolation, hunched posture, weight loss, lack of grooming, and labored breathing, and were then euthanized via CO2 inhalation. […] One hundred microliters of each dilution was plated on YPD plates supplemented with YPD 50 μg/mL ampicillin and 30 μg/mL chloramphenicol, incubated at 30° C. for 2 days, and assessed for colony-forming units. CFU per organ weight was calculated and plotted using GraphPad Prism 9.

C. neoformans H99 [3] = assay: Survival in intranasal cryptococcosis model (Example 1); assay type: in vivo, Cryptococcus neoformans in A/J mice; conditions: 14 days treatment; JH-FK-05 60 mg/kg, fluconazole 12 mg/kg, i.p. daily
Procedure: To verify if this reduction seen in the fungal burdens of JH-FK-05 and combination-treated animals could translate into a meaningful therapeutic effect, the survival of animals infected via the intranasal route was assessed (FIG. 8A). As in the fungal burden model, these animals received daily treatment for only 14 days. Following the termination of treatment, animals were monitored for signs of decline, lethargy, and ultimately, moribundity. Untreated animals in this model typically survive for about 3 weeks, and similar results were observed here (vehicle treatment median survival, 22 days). Corroborating the results of the fungal burden study, a significant extension of survival for both JH-FK-05 (median survival, 26 days) and fluconazole (median survival, 25 days) was observed.
Female A/J mice (3 to 4 weeks old; Jackson Laboratory) were anesthetized utilizing an isoflurane chamber. While anesthetized, […] of 2×10^6 cells/mL suspension was dripped onto the nares of mice, allowing them to inhale the full inoculum. Treatment began 3 h following infection with i.p. dosing of vehicle, 60 mg/kg JH-FK-05, 12 mg/kg fluconazole, or combination. […] After 14 days, animals were either sacrificed for fungal burden analysis or monitored for health and survival until reaching a humane endpoint. […] Statistical significance was determined using log-rank (Mantel-Cox) tests.

C. neoformans strain H99 [4] = assay: Murine cryptococcal infection, spleen fungal burden (Example 3); assay type: in vivo, Cryptococcus neoformans in A/J mice; conditions: 14 days; fluconazole 6 mg/kg, JH-FK-08 40 mg/kg, i.p. twice per day
Procedure: (§2) In vivo antifungal activity and therapeutic benefit were assayed by investigating the impact of the FK520 analog on organ fungal burden during cryptococcosis. Specifically, the in vivo efficacy of JH-FK-08 on fungal burden was assessed using A/J female mice. Immunodeficient A/J mice were selected in part due to their defect in complement component five and their susceptibility to cryptococcal infection. Treatment groups included vehicle of 10% Kolliphor: ethanol (1:1) in phosphate-buffered saline (PBS), 6 mg/kg fluconazole, 40 mg/kg JH-FK-08, or the fluconazole and JH-FK-08 combination, all given via intraperitoneal (i.p.) injection twice per day beginning at 4 hours post infection. […] Mice were intranasally infected with C. neoformans strain H99, and fungal burden in the lung, spleen, and brain was assessed after 14 days of treatment.
as §1, with “For inhalation infection, animals were anesthetized with isoflurane before 50 μL of inoculum was pipetted onto the upright nasal passages of each animal.” left out, “Treatment of animals began 4 hours post infection and was continued for 14 days.” left out, “dose. […]” for “dose.”

C. neoformans strain H99 [5] = assay: Survival during cryptococcal infection (Example 3); assay type: in vivo, Cryptococcus neoformans in A/J mice; conditions: 2 weeks twice daily i.p.; fluconazole 6 mg/kg, JH-FK-08 40 mg/kg; vehicle 16 days
Procedure: Finally, whether the antifungal efficacy translates into extended survival during infection was assessed. To test the impact of treatment on survival, murine survival was monitored in the cryptococcosis infection model. Following the same protocol of infection and dosing as in the fungal burden experiment, animal survival was monitored following infection and 2 weeks of intraperitoneal dosing. Fluconazole treatment extended median survival from 16 to 27 days.
as §1
For survival curve analysis, animals were monitored until reaching defined humane end points, including social isolation, hunched posture, weight loss, lack of grooming, and labored breathing, and were then euthanized via CO2 inhalation. For fungal burden analysis, mice were euthanized following 2 weeks of treatment with a designated antifungal, vehicle, or combination. Brain, lung, and spleen were harvested from animals, weighed, and homogenized in sterile PBS using steel beads and a bead beater. Each organ homogenate was serially diluted 10-fold to 10-4 in PBS. One hundred microliters of each dilution was plated on YPD plates supplemented with YPD 50 μg/mL ampicillin and 30 μg/mL chloramphenicol, incubated at 30° C. for 2 days, and assessed for colony-forming units. CFU per organ weight was calculated and plotted using GraphPad Prism 9.

C. neoformans strain H99 [6] = assay: Murine cryptococcal infection, brain fungal burden (Example 3); assay type: in vivo, Cryptococcus neoformans in A/J mice; conditions: 14 days; fluconazole 6 mg/kg, JH-FK-08 40 mg/kg, i.p. twice per day
Procedure: as §2
as §1, with “For inhalation infection, animals were anesthetized with isoflurane before 50 μL of inoculum was pipetted onto the upright nasal passages of each animal.” left out, “Treatment of animals began 4 hours post infection and was continued for 14 days.” left out, “dose. […]” for “dose.”

C. neoformans H99 [7] = assay: Intranasal model of pulmonary cryptococcosis, lung fungal burden (Example 1); assay type: in vivo, Cryptococcus neoformans in A/J mice; conditions: day 14; fluconazole 12 mg/kg i.p. daily
Procedure: First, in the intranasal model, animals were anesthetized and infected with 10^5 cells of wild-type H99 C. neoformans via instillation in the animal's nares. These animals were monitored for 14 days and then sacrificed. This model tests the efficacy of JH-FK-05 to treat a pulmonary infection, which is the most common manifestation of early-stage cryptococcosis in patients. […] In both models, animals were treated once daily via i.p. injection beginning 3 h after infection with either vehicle, 60 mg/kg JH-FK-05, 12 mg/kg fluconazole, or a combination of the two monotherapies.
Wild-type H99 C. neoformans cells were grown overnight at 30° C. in a roller drum in yeast extract-peptone-dextrose (YPD) medium. […] H99 cells were counted with a hemacytometer and diluted to 2×10^6 cells/mL in PBS for the pulmonary model and 2×10^5 cells/mL in PBS for the disseminated model.
Female A/J mice (3 to 4 weeks old; Jackson Laboratory) were anesthetized utilizing an isoflurane chamber. […] After 14 days, animals were either sacrificed for fungal burden analysis or monitored for health and survival until reaching a humane endpoint.
Mice were euthanized by CO2 inhalation at the predetermined experimental endpoint. […] A 100-μL aliquot of each dilution was plated on antibiotic plates (YPD, 50 μg/mL ampicillin, and 30 g/mL chloramphenicol), incubated for 48 to 72 h at 30° C., and assessed for CFU. […]

CC[C@@H]1/C=C(\C)C(O)[C@H](C)C[C@H](OC)[C@H]2O[C@@](O)(C(=O)C(=O)N3CCCC[C@H]3C(=O)O[C@H](/C(C)=C/[C@@H]3CC[C@@H](O)[C@H](OC)C3)[C@H](C)[C@@H](O)CC1=O)[C@H](C)C[C@@H]2OC (single isomer, unassigned) [JH-FK-11]
MIC (C. neoformans; 37° C., Table 13, read-out: C. neoformans MIC): 1.6 µg/mL (≈ 1.98 µM) | MIC (C. neoformans; read-out: C. neoformans MIC, 37° C., Table 11): 3.2 µg/mL (≈ 3.96 µM) | MIC (C. neoformans; read-out: C. neoformans MIC, 37° C., Table 12): 1.6 µg/mL (≈ 1.98 µM) | antifungal activity (fungi): robust antifungal activity; also recorded: broad-spectrum antifungal activity | immunosuppression (immunosuppression): non-immunosuppressive; also recorded: reduced for immunosuppression in vitro | immunosuppressive activity [1]: detectable immunosuppressive activities; also recorded: significantly reduced for immunosuppressive activity compared to its FK506 counterpart JH-FK-10 | IC50 ([1]; Mus musculus, CD4+ T, Table 12): 41.4 nM

OC(Cn1cncn1)(Cn1cncn1)c1ccc(F)cc1F [fluconazole, reference compound]
reduction of lung fungal burden (C. neoformans strain H99 [2]; 14 days, fluconazole 6 mg/kg, i.p. twice per day): ~ 6 fold | lung fungal burden reduction (C. neoformans strain H99 [2]; once daily, fluconazole 12 mg/kg): limited efficacy in reducing lung fungal burden | median survival (C. neoformans H99 [3]): 25 days | spleen fungal burden (C. neoformans strain H99 [4]): no detectable fungal burden | median survival (C. neoformans strain H99 [5]): 27 days | brain fungal burden (C. neoformans strain H99 [6]): no detectable fungal burden | lung fungal burden (C. neoformans H99 [7]): did not reduce the fungal burden

Reference: US20260315446A1, “ANTIFUNGAL COMPOUNDS AND USES THEREOF” (priority 2023, published 2026)
